Measured values taken from patent US12012615B2, “Method of making induced pluripotent stem cells using p53 inhibitors” (Kyoto University, priority 2008, dated 2024).

What was measured:
HDF = assay: DNA microarray gene expression, control HDF against p53 knockdown HDF; format: cell-based, human
Excerpt: To elucidate p53 target genes that are responsible for the observed enhancement of iPS cell generation, we compared gene expression between p53 wild-type MEF and p53-null MEF by DNA microarrays, and between control HDF and p53 knockdown HDF. In MEF, 1590 genes increased and 1485 genes decreased >5 fold in p53-null MEF. In HDF, 290 genes increased and 430 genes decreased >5 fold by p53 shRNA. Between mouse and human, eight increased genes are common, including v-myb myeloblastosis viral oncogene homolog (MYB) and a RAS oncogenes family, RAB39B (Table 2).

p53 [1] = assay: p53 protein level by western blot after shRNA transduction; format: cell-based, human; conditions: western blot six days after retroviral transduction
Procedure: Retroviral vectors for p53 shRNA or control RNA were transduced into HDFs. Six days after the transduction, p53 protein levels were determined by western blot analyses.
(B) In another experiment, we examined effects of shRNA against human p53 (shRNA2; Stewart S. A. et al. RNA 9(4), 493 (2003)). Retroviral vectors for shRNA expression, pMKO.1-puro (Addgene #8452), pMKO.1-puro p53 shRNA1 (Addgene #10671) and pMKO.1-puro p53 shRNA2 (Addgene #10672; shRNA sequence is shown in SEQ ID NO:28), were obtained from Addgene. Retroviruses for shRNAs, and the four or three reprogramming factors were produced in PLAT-E cells. For iPS cell generation, equal amounts of PLAT-E supematants containing each retrovirus were mixed and transduced to HDF.

HDFs = assay: Human iPS cell generation with p53 shRNA co-transduction; format: cell-based; conditions: co-introduced with the four reprogramming factors
Excerpt: The retroviral vector expressing either p53 shRNA or control RNA was transduced into HDFs together with the four reprogramming factors. To rescue RNAi-mediated knockdown, a retroviral vector for mouse p53 was co-introduced.

p53 [2] = assay: Luciferase reporter driven by a p53-responsive element in HDF; format: cell-based, human; conditions: luciferase activity two days after introduction
Excerpt: (§1) FIGS. 24A-24C show effects of p53 suppression on p21 and Myc. Genes regulated (4 increased and 7 decreased) by p53 suppression were introduced into HDFs together with the four reprogramming factors (FIG. 24A) or the four reprogramming factors and the p53 shRNA (FIG. 24B). On day 24 (FIG. 24A) or day 28 (FIG. 24B) post-transduction, numbers of iPS cell colonies were counted. **; p<0.01 compared to DsRed control (n=3). Luciferase reporters containing responsive elements of p53 or Myc, or that driven by the polymerase II promoter were introduced into HDFs, together with the mock retroviral vector, the p53 shRNA, the four reprogramming factors, or the three factors devoid of Myc. Two days later, luciferase activities were determined (c). **; p<0.01, *; p<0.05 compared to the mock control (n=3).
(§2) The p21 protein binds to Myc and suppresses its transcriptional activity (Kitaura, H. et al., J Biol. Chem., 275(14), 10477-10483 (2000)). This might contribute to the increased efficiency of iPS cell generation by p53-p21 suppression. We evaluated the Myc activity in HDF by introducing luciferase reporters driven by either a p53-responsive element or a Myc responsive element (FIG. 24C). We confirmed the p53 activity was reduced by the shRNA. […] The effect was stronger than that observed with the introduction of the four factors including c-Myc.

Myc = assay: Luciferase reporter driven by a Myc responsive element in HDF; format: cell-based, human; conditions: luciferase activity two days after introduction
Excerpt: as §1, §2

p53 shRNA2: shRNA against human p53, SEQ ID NO:28, retroviral vector pMKO.1-puro p53 shRNA2 (Addgene #10672) (GACTCCAGTGGTAATCTACTGCTCGAGCAGTAGATTACCACTGGAGTC)
number of genes decreased >5 fold (HDF): 430 genes | number of genes increased >5 fold (HDF): 290 genes | p53 protein level (p53 [1]): effectively suppressed | numbers of human iPS cell colonies (HDFs): markedly increased | p53 activity (luciferase reporter) (p53 [2]): reduced | Myc activity (luciferase reporter) (Myc): significantly enhanced
